Earlier results on 1 molecule are cited in patent publication US20080213362A1, “COMPOSITIONS AND METHODS USING TORSEMIDE” (priority 2007, published 2008).

Each structure is given as a SMILES string.

For data set [1] the following is noted: 2.5 mg once daily.
The conditions of data set [2]: diabetic or pre-diabetic patient, even during treatment with an anti-diabetic agent.

As for `Cc1cccc(Nc2ccncc2S(=O)(=O)NC(=O)NC(C)C)c1` [torsemide], the anti-hypertensive effects entry in data set [1] was “statistically significant anti-hypertensive effects”. The “effect on blood sugar levels” value in data set [2] is given as “worsen blood sugar levels”.
